The structures appear in SMILES notation.

The record followed here is patent publication US7271253B1, “Safe process for the preparation of balsalazide” (Apotex Pharmachem Inc., priority 2006, dated 2007).

The nature of series [1]: Solubility in water of N-(4-aminobenzoyl)-β-alanine salts. Format: physicochemical. An excerpt: According to one aspect of the invention, a more soluble salt of N-(4-aminobenzoyl)-β-alanine is provided which overcomes the use of the previous forms which were virtually insoluble in water.
(for example as depicted in FIG. 1). This latter temperature was selected as it provided for optimal reaction.
The preferred concentration of the aqueous sulfonic acid solution was about 4% to about 14%, more preferably about 7% to about 12%, and most preferably about 9%. The fact that higher concentrations were preferred, despite the decreased solubility of the salt, was a consequence of the fact that operationally, the use of about 9% sulfonic acid concentrations permitted proportionally lower reaction volumes, without compromising safety, and was advantageous for commercial scale-up.
FIG. 3—A comparison of the relative solubility of mesylate in differing concentrations of aqueous methanesulfonic acid.

The conditions of series [2]: RSST, different reaction temperatures, FIG. 1. The text has this: The decomposition of the intermediate was indicated by the pressure increase.
FIG. 1—Plot showing the rate of decomposition of diazonium mesylate at different temperatures. Increased pressure is indicative of the decomposition of the mesylate to form nitrogen gas.

For series [3] the following is noted: DSC, FIG. 2. In general terms: In DSC, transitions show as peaks or steps in heat flow.

Take `Nc1ccc(C(=O)NCCC(=O)O)cc1` [chloride, N-(4-aminobenzoyl)-β-alanine]: the solubility in water result is listed as “poorly soluble” in series [1] and “poor solubility” in series [1] (listed as hydrochloride salt of 4-aminobenzoyl-β-alanine).
`CS(=O)(=O)[O-].N#[N+]c1ccc(C(=O)NCCC(=O)O)cc1` [diazonium mesylate, N-(4-diazoniumbenzoyl)-β-alanine sulfonate salt]: the “temperature at which decomposition may start” value in series [2] was found to be 25 °C. Besides, in series [3], the “decomposition energy of solid relative to solution” value was “almost ten-fold higher”.
Take `Nc1ccc(C(=O)NCCC(=O)O)cc1` [free-base, N-(4-aminobenzoyl)-β-alanine]: in series [1] (differing concentrations of aqueous methanesulfonic acid, FIG. 3), the “solubility at higher concentrations of sulfonic acid” value is “decrease in the solubility”.
As for `CS(=O)(=O)O.Nc1ccc(C(=O)NCCC(=O)O)cc1` [methanesulfonic acid salt, N-(4-ammoniumbenzoyl)-β-alanine sulfonate salt], the solubility in water result in series [1] is “unexpectedly high water solubility”.
